Assay results reported in paper PMC4503722, “Novel Phenotypic Outcomes Identified for a Public Collection of Approved Drugs from a Publicly Accessible Panel of Assays” (PLoS ONE, 2015).
Read-outs that look alike come from different tables or passages of the source.

Columns and labels:
Experiment in all cases: cells
[1] = test system: endothelial tube formation in co-cultures of ECFCs and ADSCs treated with VEGF; assay type: cell-based, human; details: read-out: Anti-Angiogenesis
[2] = test system: nuclear β-catenin in C2C12 cells; assay type: cell-based; details: read-out: Wnt Pathway
[3] = test system: INS-1E cells; assay type: cell-based, rat; details: read-out: Insulin Secretion
[4] = test system: NCI-H716 cells; assay type: cell-based, Human; details: read-out: GLP 1 Secretion
[5] = test system: DLD-1; assay type: cell-based; details: read-out: Basal_Viability ATP DLD-1
[6] = test system: SW480; assay type: cell-based; details: read-out: Basal_Viability ATP SW480
[7] = test system: HCT116; assay type: cell-based; details: read-out: Basal_Viability ATP HCT116
[8] = test system: HCT116 cells treated with a GSK3β inhibitor; assay type: cell-based; details: read-out: GSK3b inh pretreated_Viability ATP HCT116
[9] = test system: HeLa cells; assay type: cell-based; details: read-out: CellCycle G2/M
[10] = S2 Table, module primary assay, 20 / 20.1 codes per legend
[11] = Mus musculus, C2C12, IC50 / EC50, C2C12 beta-catenin translocation
[12] = Rattus norvegicus, IC50 / EC50, INS-1E
[13] = Homo sapiens, IC50 / EC50, NCI-H716
[14] = Homo sapiens, HCT-116, GSK3b inhibitor pretreated
[15] = Homo sapiens, IC50 / EC50, endothelial tube area, ADSC/ECFC co-culture

SMILES	IC50 [1] [µM]	EC50 [4] [µM]	EC50 [2] [µM]	EC50 [3] [µM]	IC50 [7] [µM]	EC50 [2, 11] [µM]	EC50 [3, 12] [µM]	EC50 [4, 13] [µM]	IC50 ([5]; Homo sapiens, DLD-1, basal) [µM]	IC50 ([6]; Homo sapiens, SW480, basal) [µM]	IC50 ([7]; Homo sapiens, HCT-116, basal) [µM]	IC50 [8, 14] [µM]	IC50 [1, 15] [µM]	other results
Nc1cc(C(F)(F)F)ccc1S	> 10	1.16	–	–	–	–	–	–	–	–	–	–	–	EC50 [2, 10]: > 10 µM; EC50 [3, 10]: > 10 µM; IC50 ([5]; basal, DLD-1): > 20 µM; IC50 ([6]; basal, SW480): > 20 µM; IC50 ([7]; basal, HCT116): > 20 µM; IC50 ([8]; HCT116 pretreated with GSK3b inhibitor): > 20 µM
COc1ccc(OC(=O)N(CC(=O)O)Cc2ccc(OCCc3nc(-c4ccccc4)oc3C)cc2)cc1	> 10	1.54	> 10	> 10	7.65	–	–	–	–	–	–	–	–	IC50 [5]: 9.55 µM; IC50 [6]: 6.23 µM; IC50 [8]: 6.13 µM
Oc1c(Cl)cc(Cl)c(Cl)c1Cc1c(O)c(Cl)cc(Cl)c1Cl	–	> 10	> 10	> 10	0.0312	–	–	–	–	–	–	–	–	EC50 [9]: > 10 µM
O=C(CCBr)N1CCN(C(=O)CCBr)CC1 [Abbott brand of pipobroman]	1.37	–	> 10	> 10	> 20	–	–	–	–	–	–	–	–	EC50 [9]: > 10 µM; IC50 [5]: > 20 µM; IC50 [6]: > 20 µM; IC50 [8]: 14 µM
Cc1c(C)n(CCN(C)C)c2ccc(C(=O)OCCN(C)C)cc12 [Amindocate]	–	–	–	–	–	> 10	> 10	1.2	> 20	10.2	> 20	> 20	–	–
CC1=C(C(=O)OC(C)C)C(c2cccc([N+](=O)[O-])c2)C(C(=O)OC2CN(C(c3ccccc3)c3ccccc3)C2)=C(N)N1 (stereo not shown) [Azelnidipine]	–	–	–	–	–	> 10	> 10	1.23	5.1	3.84	3.69	5.5	3.58	–
NC(=O)C1(N2CCCCC2)CCN(CCCN2c3ccccc3CCc3ccc(Cl)cc32)CC1 [Clocapramine]	–	–	–	–	–	> 20	10.1	18.3	5.35	3.69	3.41	3.64	3.4	–
CC(C)(C)CC(C)(C)c1ccc(O)c(Cc2ccc(Cl)cc2Cl)c1 [Clofoctol]	–	–	–	–	–	–	–	–	–	–	–	–	–	EC50 ([2]; Mus musculus, C2C12, S2 Table, module primary assay, 20 / 20.1 codes per legend): > 10 µM; EC50 ([3]; Rattus norvegicus, INS-1E): > 20 µM; EC50 ([4]; Homo sapiens, NCI-H716): 0.544 µM; IC50 ([5]; Homo sapiens, DLD-1, basal, DLD-1): 2.18 µM; IC50 ([6]; Homo sapiens, SW480, basal, SW480): 3.97 µM; IC50 ([7]; Homo sapiens, HCT-116, basal, HCT116): 5.31 µM; IC50 ([8]; Homo sapiens, HCT-116, HCT116 pretreated with GSK3b inhibitor): 4.73 µM
Cc1ccc(CCn2c3c(c4cc(Cl)ccc42)CN(C)CC3)cn1 [Dorastine]	–	–	–	–	–	> 10	4.2	–	> 20	9.46	13.4	> 20	> 10	EC50 ([9]; Homo sapiens, HeLa, IC50 / EC50, HeLa): > 10 µM
